Experiments:
[1] = Photostability under photoirradiation (UV-Vis absorption over time); type: physicochemical; settings: fluence ~18 mJ/cm^2
Excerpt: Measurements were taken at 5-minute intervals. Fluence: 20 mJ/cm^2. Laser wavelength: 780 nm.
Measurements were taken at 5-minute intervals. Fluence: 20 mJ/cm^2. Laser wavelength: 725 nm.
Measurements were taken at 5-minute intervals. Fluence: 20 mJ/cm^2. Laser wavelength: 740 nm.
Photostability is also relevant factor to consider for a potential PA contrast agent for clinical applications.

[2] = test system: C4-2 tumor; test: In vivo PA imaging, prostate tumor mouse model, tail vein injection; settings: 500 μM, 200 μL, 5 μmol/kg, after 24 h
Description: (§1) Male BALB/c nude mice (18±2 g, 4-6 weeks old) were purchased from a commercial source and used according to standard animal guidelines for the care and use of laboratory animals with appropriate ethical oversight board approval.
Human prostate cancer cell lines C4-2 were purchased from commercial sources and cultured in Dulbecco's Modified Eagle Medium (DMEM) (Life Technologies, NY, USA) supplemented with 10% fetal bovine serum (FBS; Cyclone, UT, USA). Cells were incubated at 37° C. in a humidified atmosphere containing 5% CO2. For C4-2 tumor inoculation, C4-2 cells (˜1×10^6) suspended in PBS were injected under the nude mice epidermis of the right flank. Animals were observed every day for any behavioral abnormalities. […]
(§2) An optical parametric oscillator (OPO) laser source (Innolas GmbH, Bonn, Germany) emitting 8 ns pulsed lasers was coupled to a multimode optical fiber with a 1500 μm core diameter for the photoacoustic signal excitation. […] This led to the vibration of the tissue, which generated ultrasonic waves that could be recorded by a commercial 128-element linear array transrectal ultrasound transducer. […]
To test further the PA imaging potential of MMn, in vivo experiments were performed using a prostate tumor mouse model as shown in FIG. 19. […] Normalized PA intensity values were then calculated. […]

[3] = test system: C4-2 tumor; test: In vivo stability of PA signal after direct injection at the tumor site; design: species or system mouse; settings: 250 μM, 50 μL, 0.625 μmol/kg, direct injection into tumor, 0-60 min
Description: Laser light was used to illuminate the tumor during data collection: 800 nm, 20 mJ for ICG and 725 nm, 20 mJ for MMn.
Laser wavelength: 800 nm, Laser fluence: 20 mJ/cm^2. Percentage of PA signal after 1 hour=46%
Laser wavelength: 725 nm, Laser fluence: 20 mJ/cm^2. Percentage of PA signal after 1 hour=91%
as §1
Human prostate cancer cell lines C4-2 were purchased from commercial sources and cultured in Dulbecco's Modified Eagle Medium (DMEM) (Life Technologies, NY, USA) supplemented with 10% fetal bovine serum (FBS; Cyclone, UT, USA). […]
as §2
To confirm the in vivo stability of MMn for PA imaging, MMn was injected directly at the tumor site and the PA signal was measured over time (0-60 mins) with concurrent US imaging. […]

- change in absorption at 780 nm over photoirradiation ([1]; 40 μM, 30 minutes): 90%
- photostability upon photoirradiation ([1]; ICG: 100 μM, 20 minutes, 780 nm): poor photostability
SMILES: CC1(C)C(/C=C/C=C/C=C/C=C2\N(CCCCS(=O)(=O)O)c3ccc4ccccc4c3C2(C)C)=[N+](CCCCS(=O)(=O)[O-])c2ccc3ccccc3c21 [ICG, Indocyanine green]
- increase in normalized PA signal intensity at the tumor site relative to pre-injection [2]: No significant increase
- PA signal remaining at tumor site after 1 hour [3]: 46%
